Results taken from patent US20110160055A1, “Imidazole and Triazole Compounds as Fungicides” (BASF SE, priority 2008, published 2011).

Legend:
Phakopsora pachyrhizi [1] = experiment: Example G2: curative activity against soybean rust, greenhouse, sprayed directly after the 24 h incubation; type: in vivo; conditions: potted soybean seedlings, 150 ppm aqueous preparation sprayed after 24 h incubation, rated after a further 14 days; untreated plants 90% infected
Procedure: (§1) Subsequently, it was made up to 100 ml with water. This stock solution was diluted with the solvent/emulsifier/water mixture described to the active compound concentration indicated below. Alternatively to this, the active compounds were used as a commercially available ready-to-use solution and diluted with water to the active compound concentration indicated. Curative activity against soybean rust caused by Phakopsora pachyrhizi Leaves of potted soybean seedlings were inoculated with a spore suspension of soybean rust (Phakpsora pachyrhizi). […] During this time, the spores germinated and the germ tubes penetrated into the leaf tissue. Infected plants were then sprayed to run off point with the active compound solution described above at the active compound concentration stated below. After the spray coating had dried on, the test plants were cultivated in a greenhouse at temperatures between 23 and 27° C. and 60 to 80% relative atmospheric humidity for a further 14 days. The extent of the rust fungus development on the leaves was then determined visually in % infection.

Phakopsora pachyrhizi [2] = experiment: Example G1: curative activity against soybean rust, greenhouse, sprayed two days after the 24 h incubation; type: in vivo; conditions: potted soybean seedlings, 150 ppm aqueous preparation sprayed two days after incubation, rated after a further 10 days; untreated plants 90% infected
Procedure: as §1, with “were then cultivated further in a greenhouse at temperatures between 23 and 27° C. and 60 to 80% relative atmospheric humidity. After two days, the plants were sprayed to” for “were then sprayed to”, “a further 10 days. The” for “a further 14 days. The”

| Compound | infection (extent of rust fungus development on the leaves, visual) (Phakopsora pachyrhizi [1]) [%] | infection (extent of rust fungus development on the leaves, visual) (Phakopsora pachyrhizi [2]) [%] |
| --- | --- | --- |
| CC(COc1cccc(Cl)c1Cl)=C(C)CC(C(O)C(C)(C)C)n1cncn1 (centres unmarked) [I.A14a] | 0 |  |
| CC(COc1ccccc1Cl)=C(C)CC(C(O)C(C)(C)C)n1cncn1 (centres unmarked) [I.A6b] |  | 0 |
